Test results reported in patent publication US4225579A, “Means and method for improving defenses against caries” (priority 1979, dated 1980).
Residues, ends and D or L forms follow the SMILES beside them.

What was measured:
Assay type in all cases: cell-based
[1] = system: salivary sediment; assay: pH fall and rise with individual peptides of 2-4 amino acid units in salivary sediment-glucose mixture; details: for pH rising to / pH drop to: salivary sediment 16.7% (v/v), glucose 2.8 mM, peptide 3.3 mM; for pH rising to: measured through the fourth hour; for pH drop to: pH starts slightly above 7
Procedure: Four sets of three 10×75 mm test tubes were provided with 0.2 ml of 8.4 mM (millimolar) of aqueous glucose solution. Set I was provided with 0.2 ml of pooled supernatant saliva. […] Set IV was provided with 0.2 ml of distilled water. […] The concentration of the peptide in the combined composition was 3.3 mM. […] The pH values are as follows: Extensive testing of individual peptides of 2-4 amino acid units as could reasonably be obtained or synthesized was done. The tests were carried out under the same conditions as Sets I-IV. The salivary sediment was present in an amount of 16.7% (v/v), glucose 2.8 mM and the peptide 3.3 mM in the final composition. Duplicate runs without peptide were run parallel to the others as a double check. […] An effective pH rise factor begins to reverse the fall within the first hour. Measurement continues through the fourth hour.

[2] = system: oral bacteria; assay: pH of glucose solution incubated with oral bacteria suspension, Sets I-IV; details: 37° C.; for pH at 0 minutes: 0 time when bacteria added, test substance 3.3 mM in combined composition
Procedure: Experiments were performed in vitro using supernatant saliva. The saliva was obtained from random donors whose salivary secretions were paraffin block stimulated. The saliva donations were pooled before and after sediment removal.
Four sets of three 10×75 mm test tubes were provided with 0.2 ml of 8.4 mM (millimolar) of aqueous glucose solution. Set I was provided with 0.2 ml of pooled supernatant saliva. Set II was provided with 0.2 ml of 9.9 mM of the peptide glycine-glycine-arginine. Set III was provided with 0.2 ml of 9.9 mM arginine. Set IV was provided with 0.2 ml of distilled water. Sequentially 0.2 ml of a 50:50 aqueous suspension of oral bacteria was added to each test tube. The concentration of the peptide in the combined composition was 3.3 mM. The prepared test tubes were kept at 37° C. in a water bath. pH readings were taken at 0 time when the bacteria was added and at 15, 30, 45, 60, 90, 120, 180 and 240 minutes.

[3] = system: oral bacteria; assay: as above; details: 37° C., 3.3 mM

Structure (SMILES)	pH rising to [1]	pH drop to [1]	pH at 0 minutes [2]	pH at 15 minutes ([2]; 3.3 mM)	pH at 39 minutes ([2]; 39 minutes, 3.3 mM)	pH at 45 minutes ([2]; 3.3 mM)	pH at 60 minutes ([2]; 3.3 mM)	pH at 90 minutes ([2]; 3.3 mM)	pH at 120 minutes ([2]; 3.3 mM)	pH at 180 minutes ([2]; 3.3 mM)	pH at 240 minutes ([2]; 3.3 mM)	pH at 39 minutes [3]	effectiveness as pH rise factor [1]
N=C(N)NCCC[C@H](N)C(=O)O.NCC(=O)O.NCC(=O)O [Gly-Gly-Arg, glycine-glycine-arginine]	7.5	5.5	7.4	6.8	6.6	6.4	6.6	6.6	6.7	7.2	7.6		
N=C(N)NCCC[C@H](N)C(=O)O [Set III, arginine, reference compound]			7.3	5.8		5.2	4.9	5.0	5.0	5.3	5.8	5.4	
N=C(N)NCCC[C@H](NC(=O)[C@H](CCCCN)NC(=O)CNC(=O)CN)C(=O)O [Gly-Gly-Lys-Arg, H-glycine-glycine-lysine-arginine-OH] (H-GGKR-OH)	8.4	6.4											proven effective
